Laboratory results reported in patent US9623084B2, “Methods for treating multiple sclerosis” (UNIVERSITY OF SOUTHERN CALIFORNIA, priority 2013, dated 2017).

Experiments:
[1] = system: PLP-EAE in SJL/J mice (relapsing-remitting model of MS); test: A(1-7) treatment in the relapsing-remitting PLP-EAE model of MS; assay type: in vivo; details: FIG. 1C
Source text: Multiple Sclerosis (MS) is a chronic autoimmune and neurodegenerative disease of the central nervous system (CNS) that is characterized by focal infiltration of leukocytes, including myelin-specific T cells, into the CNS, resulting destruction of myelin, demyelination, oxidative stress, axonal loss and ultimately, clinical symptoms and neurological disability. Experimental autoimmune encephalomyelitis (EAE) is a well-established animal model of MS that mimics many of the features of MS. We evaluated the ability of angiotensin peptide A(1-7) to modulate EAE disease course. For this study we used two common EAE models to study the efficacy of A(1-7), one that replicates the chronic progressive form of MS and the other that follows a relapsing-remitting course of the disease. Mice were immunized with peptides corresponding to major immunodominant regions of two myelin proteins: myelin oligodendrocyte protein 35-55 (MOG-EAE) immunization in C57BL6 mice to induce a chronic progressive disease, or proteolipid protein 139-151 (PLP-EAE) immunization in SJL/J mice induced a relapsing-remitting disease.
Female SJL/J mice, 10-weeks-old, were immunized subcutaneously in 4 sites on their flank (approximately 50 μl each) with 120 μg PLP-139-151 peptide emulsified in 200 μl CFA at baseline. Mice were anesthetized (as described for MOG-EAE) for the immunizations. SJL/J mice are highly susceptible to EAE induction by this method and require only one immunization to achieve disease in 90-100% of mice.
PLP-EAE is a relapsing form of disease in which the first acute attack of neurological symptoms occurs at approximately 10-13 days after immunization, peaks between day 15 and 18, is followed by a period of recovery, or remission for about 10 days. 25-40 days after immunization ˜75% of mice develop a second wave of paralysis (relapse). Relapses are often less severe and of shorter duration than the first attack. PLP-EAE mimics the relapsing-remitting form of MS. […]

[2] = system: Normal human progenitor cells (neurosphere cultures); test: A(1-7) treatment in in vitro neurosphere cultures; assay type: cell-based
Experimental: Normal human progenitor cells were purchased from Clonetics (San Diego, Calif.) and cultured in Neural Progenitor Cell Maintenance Medium (NPMM) [Neural Progenitor Basal Medium containing human recombinant fibroblast growth factor-beta, human recombinant epidermal growth factor, neural survival factors, gentamycin and amphotericin B)]. The cells were thawed, diluted into NPMM and cultured for 24 hours in a 75 cm^2 flask. Until studies to assess differentiation, the cells were cultured in dedifferentiated spheroids.
In order to assess the differentiation of neuronal cells, the cells were seeded upon wells coated with 0.05% polyethyleneimine (PEI) substrate in borate buffer solution. The wells of a 96 well plate were coated with 0.05 ml of this solution overnight at room temperature. After the incubation, the substrate was removed by aspiration, rinsed with sterile water and allowed to dry before seeding of cells. Four days after plating, the number of cells undergoing differentiation, as assessed by neurite outgrowth) was counted

[3] = system: MOG-EAE in C57BL/6 mice (chronic progressive model of MS); test: A(1-7) treatment in the chronic progressive MOG-EAE model of MS; assay type: in vivo; details: for disease course (clinical scores): vs control non-treated immunized mice, up to 50 days post immunization
[4] = treatment started 10 days after immunization, vs control non-treated immunized mice

Asp-Arg-Val-Tyr-Ile-His-Pro (DRVYIHP) [A(1-7), angiotensin peptide A(1-7)]
disease course (disability) with duration of treatment ([1]; PLP-EAE SJL mice, increasing duration of treatment): improves disease course (less disability) with increasing duration of treatment | disease severity [1, 4]: the disease was less severe | onset of disease [1, 4]: delayed onset of disease | neurite outgrowth and proliferation ([2]; PEI-coated wells, counted four days after plating, increasing doses of A(1-7), FIG. 4): promotes neurite outgrowth and proliferation with increasing doses of A(1-7) | number of cells able to undergo differentiation (proliferation) ([2]; suspension culture in the presence of A(1-7) for 4-7 days prior to placement on an adherent substrate): an increase in the number of cells able to undergo differentiation (proliferation) | disease progression and severity ([3]; 1 mg/kg/day continuous delivery (Alzet pump) vs control, started day 11, FIG. 3): highly effective at inhibiting disease progression and maintaining reduced severity of the disease | restoration from disability ([3]; 2 mg/kg/day continuous delivery vs control saline treated mice, FIG. 3 and FIG. 4A): promotes restoration from disability | clinical disease score ([3]; all doses, twice daily injection, vs control saline treated mice, started day 11, FIG. 2): improved clinical disease score | disease course (clinical scores) ([3]; once daily sc 0.5 mg/kg A(1-7) from day 10, FIG. 1A): less severe disease course | clinical disease score, dose comparison ([3]; twice daily injection, total of 1.2 or 4 mg/kg/day vs 0.5 mg/kg/day, started day 11, FIG. 2): more effective in reducing clinical disease score than 0.5 mg/kg/day | disease course (clinical scores) ([3]; twice daily sc 0.5 mg/kg A(1-7) from day 10, FIG. 1B): less severe disease course
